Measured values: PubChem BioAssay AID2744 (NMMLSC, 2010)
pEC50: −log10 of the molar value. Calls of active or inactive are those of the source.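 How the source made its calls: active means fitted half-maximal concentration for changing reporter fluorescence at or below a set limit; inactive means the rest.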

Target: Citrate synthase, peroxisomal (Saccharomyces cerevisiae (strain ATCC 204508 / S288c)) (UniProt P08679)
Assay: yeast TOR pathway CIT2-GFP reporter potency – flow cytometry, MLPCN hits, dose response (AID 2744)
Settings: S. cerevisiae CIT2-GFP strain, 3 h, at 33 µM (top of the series)

Citrate synthase, peroxisomal (Saccharomyces cerevisiae (strain ATCC 204508 / S288c)), sequence (P08679 whole entry, looked up): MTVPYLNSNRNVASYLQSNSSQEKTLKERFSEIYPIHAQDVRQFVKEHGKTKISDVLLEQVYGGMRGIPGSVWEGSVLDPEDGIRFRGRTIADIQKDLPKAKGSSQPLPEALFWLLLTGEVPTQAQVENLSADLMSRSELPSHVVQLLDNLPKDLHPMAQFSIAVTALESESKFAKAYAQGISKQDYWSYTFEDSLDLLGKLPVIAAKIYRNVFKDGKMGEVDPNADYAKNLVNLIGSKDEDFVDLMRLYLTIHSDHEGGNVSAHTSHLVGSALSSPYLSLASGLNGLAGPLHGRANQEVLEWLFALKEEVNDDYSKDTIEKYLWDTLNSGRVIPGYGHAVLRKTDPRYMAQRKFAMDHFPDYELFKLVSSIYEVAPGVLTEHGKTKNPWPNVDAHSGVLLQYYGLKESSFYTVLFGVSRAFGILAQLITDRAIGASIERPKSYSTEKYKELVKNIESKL

Row | Compound | GFP fluorescence, higher = induction
1 | CC(C)[C@@]1(c2ccccc2)ON(c2ccccc2C(F)(F)F)C1=O | inactive
2 | Cc1ccc2c(nc3s/c(=C\c4ccc(-c5ccccc5C(=O)O)o4)c(=O)n32)c1C | inactive
3 | O=C(NOC(=O)c1ccccc1)c1ccccc1 | inactive
4 | Cc1cccc2c1NC(=O)/C2=C\C(=O)c1cccs1 | inactive
5 | O=C(/C=C/c1ccccn1)c1ccc(Br)cc1O | inactive
6 | COc1ccccc1[C@@]1(C)ON(c2ccccc2C(F)(F)F)C1=O | inactive
7 | COc1ccc(/C=C/C(=O)c2cc(Br)ccc(=O)c2O)cc1 | inactive
8 | CCOc1ccc(NC2=C(Cl)C(=O)N(Cc3ccccc3)C2=O)cc1 | inactive
9 | Cc1ccc(C(=O)Oc2oc(-c3ccco3)nc2C=Nc2ccc(Cl)cc2)cc1 | inactive
10 | COc1ccc(N2C(=O)C(Cl)=C(Nc3c(C)n(C)n(-c4ccccc4)c3=O)C2=O)cc1 | inactive
11 | COC(=O)/C(=C/c1c[nH]c2ccccc12)[N+](=O)[O-] | inactive
12 | O=C(O)c1ccccc1SC1CC(=O)N(c2ccc3c(c2)OCO3)C1=O (centres undefined) | inactive
13 | O=C(c1ccc(Cl)c([N+](=O)[O-])c1)N1CCN(c2ccccc2)CC1 | inactive
14 | CC(C)C(=O)NC(c1cccs1)c1cc([N+](=O)[O-])c2cccnc2c1O (centres undefined) | inactive
15 | Cc1ccc(C(=O)NNC(=S)NC(=O)c2ccco2)cc1 | inactive
16 | Cc1ccc(C(=O)Oc2oc(-c3ccccc3)nc2C=Nc2ccc(N(C)C)cc2)cc1 | inactive
17 | Cc1ccc(S(=O)(=O)c2ccc([N+](=O)[O-])cn2)cc1 | inactive
18 | COc1ccc(/C=C2\C(=O)ON=C2c2ccccc2)cc1 | inactive
19 | COc1cccc(/C=C2\SC(=S)N(CCCC(=O)Nc3ccc(C(=O)O)cc3)C2=O)c1 | inactive
20 | CCOc1cc(C=C2C(=O)c3ccccc3C2=O)ccc1OCC(=O)Nc1ccc(C)cc1 | inactive
21 | COc1ccc(C2=CC3=C(Br)C(=O)C(C)(O)C(=O)C3=CO2)cc1 (centres undefined) | inactive
22 | Cc1cccc(OCCN2CSC(=S)N(C)C2)c1 | inactive
23 | Cc1nn2c(-c3ccncc3)nnc2c2ccccc12 | inactive

Row | Compound | GFP fluorescence, higher = induction
24 | O=c1/c(=C/c2cccc3ccccc23)sc2ncnn12 | inactive
25 | COc1ccc(/C=C/C(=O)NC(=S)NNC(=O)c2cnccn2)cc1 | inactive
26 | O=C(/C=C/c1ccccn1)c1cc(Br)ccc1O | inactive
27 | c1ccc(-c2cccc(-c3ccccn3)n2)nc1 | inactive
28 | O=C(/C=C/c1ccc(Br)cc1)NC(=S)NNC(=O)c1ccco1 | inactive
29 | CC1=CC(=O)C(C(C)C)=C/C1=N/OS(=O)(=O)c1ccccc1 | inactive
30 | CCCCCCCCCCCCCCCC[n+]1cccc2ccccc21 | inactive
31 | O=C(/C=C/c1cccc([N+](=O)[O-])c1)c1ccc([N+](=O)[O-])o1 | inactive
32 | O=C1Nc2ccc(Br)cc2/C1=C/C(=O)c1ccc2c(c1)OCO2 | inactive
33 | Cc1cc(C)nc(S/C=C/C(=O)c2ccccc2)n1 | inactive
34 | COc1ccccc1C(=O)NNC(=S)NC(=O)c1cccs1 | inactive
35 | CCCc1cc(NCc2ccccn2)n2nc(C)c(-c3ccccc3)c2n1 | inactive
36 | O=[N+]([O-])c1cc(S(=O)(=O)C(F)(F)F)ccc1Sc1nc2ccccc2s1 | inactive
37 | CC(Oc1cc2oc(=O)c3c(c2cc1Cl)CCC3)C(=O)NCCN1CCOCC1 (centres undefined) | inactive
38 | Cc1cccc(/C=C/C(=O)c2ccc([N+](=O)[O-])o2)c1 | inactive
39 | Cc1ccc(NC(=O)c2cc(N3C(=O)C=CC3=O)ccc2N2CCOCC2)cc1Cl | inactive
40 | O=C(Nc1ccc(N2CCOCC2)cc1)C1CCN(S(=O)(=O)c2ccc3c(c2)OCCO3)CC1 | inactive
41 | O=C(OCC(=O)N1CCN(C(=O)c2ccco2)CC1)c1cc(-c2ccccc2)nc2ccccc12 | inactive
42 | O=[N+]([O-])c1ccc(Sc2nc3ccccc3o2)c([N+](=O)[O-])c1 | inactive
43 | O=C(/C=C/c1ccccc1)c1cc(Br)ccc(=O)c1O | inactive
44 | O=C(Nc1cccc(C(F)(F)F)c1)Oc1ccc(Cl)c2cccnc12 | inactive
45 | COc1ccc(N=Nc2ccc(O)c3ncccc23)cc1 | inactive
46 | O=C1NC(=O)N(Cc2ccc(F)cc2)C(=O)/C1=C/c1cccs1 | inactive

Row | Compound | GFP fluorescence, higher = induction
47 | Oc1ccc(N=Nc2ccccc2)o1 | inactive
48 | C[C@@]12C(=O)OC(=O)[C@]1(C)C1CCC2O1 | inactive
49 | Cc1ccc(N2C(=O)C(Cl)=C(Nc3c(C)n(C)n(-c4ccccc4)c3=O)C2=O)cc1 | inactive
50 | CCN(CC)C(=S)SSC(=S)N(CC)CC | inactive
51 | [O-][n+]1cccc2c(Br)cc(Br)c(O)c21 | inactive
52 | COc1ccc(C2=CC(=O)N(Nc3ccccc3)C2=O)cc1 | inactive
53 | COc1ccc(C(=O)/C=C2/C(=O)Nc3ccccc32)cc1OC | inactive
54 | Cc1ccc(NC(=O)c2nc(S(=O)(=O)Cc3ccccc3)ncc2Cl)cc1 | inactive
55 | CN(C)/C=C/C(=O)c1ccc(-c2ccc(Cl)cc2Cl)o1 | inactive
56 | NC(=O)COc1ccc(C(=O)/C=C2/C(=O)Nc3ccccc32)cc1 | inactive
57 | CC(Oc1ccc2ccccc2c1)C(=O)NNC(=S)NC(=O)c1ccco1 (centres undefined) | inactive
58 | COc1ccc(N=Cc2nc(-c3ccccc3)oc2OC(C)=O)cc1 | inactive
59 | N#Cc1cc([N+](=O)[O-])c(-n2nnc3ccccc32)c([N+](=O)[O-])c1 | inactive
60 | On1ccccc1=S | inactive
61 | COc1ccc(OCC(=O)NNC(=S)NC(=O)C2CCCCC2)cc1 | inactive
62 | O=C(c1ccccn1)c1conc1C(=O)c1ccc(Br)cc1 | inactive
63 | O=C(C#Cc1cccc([N+](=O)[O-])c1)c1ccccc1 | inactive
64 | CCCc1cc(=O)oc2cc(C)cc(OCC(=O)NC3CC3)c12 | inactive
65 | O=C(COc1ccccc1)N1CCN(c2ncnc3c2cnn3-c2ccccc2)CC1 | inactive
66 | O=C(Sc1cccc2cccnc12)c1ccccc1Br | inactive
67 | Cc1nc2ccc(NC(=O)c3oc4ccc(F)cc4c3C)cc2s1 | inactive
68 | Cc1ccc(NC(=O)c2cc(N3C(=O)C=CC3=O)ccc2Cl)cc1C | inactive
69 | O=[N+]([O-])c1ccc(S(=O)(=O)c2cccc(C(F)(F)F)c2)nc1 | inactive

Row | Compound | GFP fluorescence, higher = induction
70 | CCOC(=O)CSC1=NC(=O)/C(=C\c2ccc(Cl)cc2)S1 | inactive
71 | Cc1[nH]c2ccccc2c1C(=O)COC(=O)c1ccc([N+](=O)[O-])s1 | inactive
72 | O=C1Oc2ccccc2C(=O)/C1=C/c1ccccc1O | inactive
73 | COc1ccc(C=C2C(=O)c3ccccc3C2=O)cc1O | inactive
74 | CCCN1CCc2c(sc(NC(=S)NC(=O)c3ccccc3)c2C#N)C1 | inactive
75 | O=C(Nc1ccccc1)c1nnsc1S(=O)(=O)c1ccc(Cl)cc1 | inactive
76 | Cc1ccc(/C=N/Nc2ncc(Cl)cc2Cl)s1 | inactive
77 | O=c1c2sc(-c3ccccc3)cc2nc2n1CCC2 | inactive
78 | Cc1ccc(C2=NN(S(C)(=O)=O)C(c3ccc4c(c3)OCO4)C2)cc1 (centres undefined) | inactive
79 | CS(=O)(=O)c1nc(-c2ccccc2)cc(C(F)(F)F)n1 | inactive
80 | O=C1NC(=S)NC(=O)C1=Cc1ccc2c(c1)CCN2CCCCl | inactive
81 | O=C(Oc1cccc2cccnc12)c1ccc(Br)o1 | inactive
82 | C#CCOCCOCCOCCNc1nc(N2CCN(C(=O)CCCCCCCCCCNC(=O)[C@H](CCCCN)n3cc(C)nn3)CC2)nc(N2CCN(C(=O)CCCCCCCCCCNC(=O)[C@H](CCCN=C(N)N)n3cc(C[C@@H](C)CC)nn3)CC2)n1 | inactive
83 | Cc1sc(/C=C2\C(=O)ON=C2c2ccccc2)cc1Br | inactive
84 | Cn1c(=O)c(C(=O)NNC(=O)c2ccc(Br)cc2)c(O)c2ccccc21 | inactive
85 | O=C(CCS(=O)(=O)c1ccccc1)Nc1nc(-c2ccccn2)cs1 | inactive
86 | COc1cccc(N=Cc2nc(-c3ccccc3)oc2OC(C)=O)c1 | inactive
87 | C[C@@H]1C[C@@H]([C@H](O)CC2CC(=O)NC(=O)C2)C(=O)[C@@H](C)C1 | inactive
88 | O=S1(=O)C=C(Sc2nc3ccccc3s2)c2ccccc21 | inactive
89 | CCc1ccc2c(c1)/C(=C/C(=O)c1cccs1)C(=O)N2 | inactive
90 | Cc1ccc(-c2nc(N)c3c(-c4ccc(C)cc4)nn(C(C)(C)C)c3n2)cc1 | inactive
91 | COc1ccc([C@]2(C(C)C)ON(c3ccccc3C(F)(F)F)C2=O)cc1 | inactive
92 | CC(=O)NN1C(=O)/C(=C/c2ccc(Br)o2)SC1=S | inactive

Same assay, conditions: S. cerevisiae CIT2-GFP strain, flow cytometry fluorescence, 3 h

Row | Compound | pEC50
93 | Cc1ccc(/C=C/C(=O)c2ccccc(=O)c2O)c(C)c1 | 4.83
94 | N/C(Cc1ccc(Cl)c(Cl)c1)=N\OC(=O)c1cccs1 | 4.99
